Holding throughout (test): NCI anticancer screen, dose series, 48 h
For test [1], the system named is 786-0.
The subject of test [2] is A549.
The subject of test [3] is ACHN.
The subject of test [4] is CCRF-CEM.
The test system of test [5] is HCT-15.
Test [6] has as its system HOP-62.
Test [7] relates to Hs-578T.
In test [8] the test system is K562.
Test [9] relates to MDA-MB-435.
Test [10] deals with MDA-N.
Test [11] deals with MOLT-4.
For test [12], the system named is Malme-3M.
In test [13] the test system is NCI-H23.
Test [14] relates to NCI/ADR-RES.
Test [15] concerns OVCAR-3.
Test [16] has as its system OVCAR-4.
Test [17] relates to RXF 393.
Test [18] deals with SNB-19.
Test [19] has as its system U-251.
In test [20] the test system is A498.

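Where inhibition never reached the appropriate level, the endpoint shown equals the highest concentration tested. Otherwise, values were interpolated linearly from a five-concentration, 48-hour dose response in 96-well plates. Here, GI50 denotes the concentration required for 50% inhibition of growth.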 Calls of active or inactive are those of the source. No stated cut-off is given here; in the data, active = GI50 up to about 1.1 µM and inactive = higher. Some results are limits rather than exact numbers.

On to `COc1cc(C2=C(C)[C@@H]3CN(CC=C3c3ccc(Cl)cc3)C2)c(S(=O)(=O)O)cc1OC`, for which the GI50 in test [1] is > 100 µM (inactive); in test [2], > 100 µM (inactive); in test [3], > 100 µM (inactive); in test [4], > 100 µM (inactive); in test [5], over 100 µM; in [6], > 100 µM (inactive). For the same compound, the GI50 in test [7], in test [8], in [9], in [10], in [11] and in test [12] was > 100 µM (inactive) in each case. Further, the GI50 in test [13], in test [14], in test [15], in test [16], in test [17] and in [18] was > 100 µM (inactive) each time. In test [19], the GI50 was > 100 µM (inactive).

Turning to `COc1ccc(P2(=S)Oc3ccc(C(c4ccccc4)(c4ccccc4)c4ccccc4)cc3O2)cc1` (configuration not stated), the GI50 is 18 µM (inactive) in test [1]; 17.7 µM (inactive) in test [20]; 16.6 µM (inactive) in test [2]; 16.7 µM (inactive) in test [3]; 24.9 µM (inactive) in test [4]; 19.3 µM in [5]. The GI50 was 24.6 µM (inactive) in [6]; 21.8 µM (inactive) in test [7]; 17.8 µM (inactive) in [8]; 16.4 µM (inactive) in test [9]; 18.5 µM (inactive) in test [10]; 19.6 µM (inactive) in test [11]. Further, the GI50 in test [12] was 20 µM (inactive); in [13], 16.9 µM (inactive); in test [14] it was 20.6 µM (inactive); in test [15], 16.9 µM (inactive); in test [16] it was 13.2 µM (inactive); in test [18], 16 µM (inactive). In addition, the GI50 in [19] was 18 µM (inactive).

In the case of `COc1cc(-c2nc(N)c(C#N)c3c2CCS(=O)(=O)c2ccc(C)cc2-3)cc(OC)c1OC`, the GI50 was 19.1 µM (inactive) in test [1]; 29.4 µM (inactive) in test [20]; > 100 µM (inactive) in test [2]; 28.6 µM (inactive) in test [3]; > 100 µM (inactive) in test [4]; over 100 µM in test [5]. Besides, the GI50 in [6] was 22.9 µM (inactive); in [7], 33.8 µM (inactive); in [8] it was > 100 µM (inactive); in test [9] it was > 100 µM (inactive); in test [10], > 100 µM (inactive); in test [12] it was 17.5 µM (inactive). Besides, the GI50 in test [13] is 25.4 µM (inactive); in test [14], 12.6 µM (inactive); in test [15], > 100 µM (inactive); in [16], > 100 µM (inactive); in [18] it was 7.05 µM (inactive); in test [19] it was 24.8 µM (inactive).

Take `O=[N+]([O-])c1cc2ccc1OCc1cccc(n1)COc1ccc(cc1[N+](=O)[O-])/C=N\CCCCCCCC/N=C\2`: the GI50 in test [1] is > 100 µM (inactive); in test [20], > 100 µM (inactive); in [2], > 100 µM (inactive); in test [3] it was > 100 µM (inactive); in test [4], > 100 µM (inactive); in [5] it was over 100 µM. In addition, the GI50 in test [6], in test [7], in [8], in test [9], in test [10] and in [11] was > 100 µM (inactive) each time. For the same compound, the GI50 in [12], in test [13], in [14], in test [15], in test [16] and in test [18] was > 100 µM (inactive) in each case. The GI50 in test [19] is > 100 µM (inactive).

Regarding `CC1(C)[C@H]2Cc3cc4nc5ccccn5c4cc3[C@@H]1C2`, the GI50 in test [1] was 17.2 µM (inactive); in test [2], 16.4 µM (inactive); in [3] it was 18.7 µM (inactive); in [4], 31.3 µM (inactive); in test [5], 19.2 µM; in test [6], 18.7 µM (inactive). Moreover, the GI50 in test [7] was 15.6 µM (inactive); in [8] it was 19.8 µM (inactive); in test [9] it was 15.3 µM (inactive); in test [10] it was 17.3 µM (inactive); in [11], 27.1 µM (inactive); in test [12] it was 12.4 µM (inactive). In addition, the GI50 in test [13] was 17 µM (inactive); in test [14], 18.2 µM (inactive); in test [15] it was 17.5 µM (inactive); in [16], 12 µM (inactive); in [18] it was 16 µM (inactive); in test [19] it was 15.7 µM (inactive).

With `O=C(c1ccccc1)C1N=NCC1c1ccc([N+](=O)[O-])cc1` (configuration not stated), the GI50 in test [1] was > 100 µM (inactive); in test [20], 39 µM (inactive); in test [2], 37.2 µM (inactive); in test [3], 47.1 µM (inactive); in test [4] it was 0.935 µM (active); in test [5] it was 45.8 µM. Besides, the GI50 is > 100 µM (inactive) in [6]; 34.8 µM (inactive) in [7]; 32.5 µM (inactive) in test [8]; 49.1 µM (inactive) in test [9]; 29.6 µM (inactive) in test [10]; 22.4 µM (inactive) in test [11]. Besides, the GI50 in [12] was 51.4 µM (inactive); in test [13], 36.1 µM (inactive); in [14], 39.3 µM (inactive); in [15] it was 17.1 µM (inactive); in test [16] it was 49.2 µM (inactive); in test [18], 54.8 µM (inactive). The GI50 in [19] is 48.5 µM (inactive).

As to `Cc1ccc(C(=O)N/N=C(\N=N\c2ccccc2[N+](=O)[O-])c2ccc(N(C)C)cc2)cc1`, the GI50 in test [1] is > 100 µM (inactive); in test [2], > 100 µM (inactive); in test [3] it was > 100 µM (inactive); in [4] it was > 100 µM (inactive); in [5] it was 92.5 µM; in test [7] it was > 100 µM (inactive). The GI50 in [8] was > 100 µM (inactive); in test [9], 22.8 µM (inactive); in [10] it was > 100 µM (inactive); in test [11], > 100 µM (inactive); in [13], > 100 µM (inactive); in test [14], > 100 µM (inactive). Moreover, the GI50 in [15] was 92 µM (inactive); in test [16], > 100 µM (inactive); in test [18], > 100 µM (inactive); in [19], > 100 µM (inactive).

For `NC(=O)C(=CNC(=S)c1ccncc1)C(N)=O`, the GI50 in test [1] was > 100 µM (inactive); in test [2], > 100 µM (inactive); in test [3], > 100 µM (inactive); in test [4], > 100 µM (inactive); in test [5] it was over 100 µM; in [6], > 100 µM (inactive). Besides, the GI50 in [7], in test [8], in test [9], in [10], in test [11] and in [13] was > 100 µM (inactive) in each case. The GI50 in test [14], in [15], in test [16], in [17], in [18] and in [19] was > 100 µM (inactive) each time.

With `O=C(c1ccccc1)c1ccc(N2C(=O)/C(=C/c3cccc([N+](=O)[O-])c3)N=C2c2ccccc2)c(N2C(=O)/C(=C/c3cccc([N+](=O)[O-])c3)N=C2c2ccccc2)c1`, the GI50 in [1] is 79.1 µM (inactive); in [20], 19.3 µM (inactive); in [2], 11 µM (inactive); in [3], 53.2 µM (inactive); in test [5], 16.5 µM; in test [6], 75.3 µM (inactive). Further, the GI50 is 30.7 µM (inactive) in [7]; 31.7 µM (inactive) in test [8]; 4.88 µM (inactive) in [9]; 21.7 µM (inactive) in [10]; 20.5 µM (inactive) in test [11]; 25.1 µM (inactive) in [14]. The GI50 is 30 µM (inactive) in test [15], 34.6 µM (inactive) in test [16], 54.8 µM (inactive) in [18] and 78.7 µM (inactive) in test [19].

Consider `CC1CCc2sc3nc4n(c(=O)c3c2C1)CC(C)S4` (configuration not stated), for which the GI50 is 23.1 µM (inactive) in test [1]; 21 µM (inactive) in test [2]; 24.9 µM (inactive) in test [3]; 25.6 µM in test [5]; 32.7 µM (inactive) in test [6]; 39.9 µM (inactive) in test [7]. Also, the GI50 in test [8] is 24.7 µM (inactive); in [9], 34.4 µM (inactive); in test [10] it was 28.4 µM (inactive); in test [12] it was 25.7 µM (inactive); in test [13], 25.3 µM (inactive); in test [14] it was 30.8 µM (inactive). Also, the GI50 is 7.6 µM (inactive) in [15]; 25.5 µM (inactive) in test [16]; 15.4 µM (inactive) in test [17]; 27.7 µM (inactive) in test [18]; 25.6 µM (inactive) in [19].

`CSc1ncnc2c1ncn2C1CC(Oc2ccc(C)cc2)C(COc2ccc(C)cc2)O1` (configuration not stated): the GI50 was > 100 µM (inactive) in [1]; > 100 µM (inactive) in [20]; > 100 µM (inactive) in [2]; > 100 µM (inactive) in test [3]; > 100 µM (inactive) in [4]; over 100 µM in test [5]. Besides, the GI50 in [6] was > 100 µM (inactive); in test [7] it was > 100 µM (inactive); in test [9], > 100 µM (inactive); in test [10], > 100 µM (inactive); in test [11], 6.1 µM (inactive); in [12], > 100 µM (inactive). Further, the GI50 in test [13] is 49.4 µM (inactive); in test [14] it was > 100 µM (inactive); in test [15], > 100 µM (inactive); in test [16], > 100 µM (inactive); in [18] it was > 100 µM (inactive); in test [19] it was > 100 µM (inactive).

The values above are taken from ChEMBL document CHEMBL1201862, “PubChem BioAssay data set” (2004).
